From the supplement of paper PMC5770543
± gives the standard deviation.

Experiments:
[1] = target: Toxoplasma gondii RH tachyzoites; experiment: EC50 growth inhibition (48 h luciferase)
[2] = tested on: Plasmodium falciparum 3D7; experiment: % inhibition of schizont-to-ring transition vs DMSO; higher = more inhibition
In short: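 Schizont-to-ring transition inhibition compares new ring formation with that in vehicle controls. Synchronised P. falciparum schizonts (about 40–42 hours post-invasion, 1% parasitemia, 2.5% hematocrit, AlbuMAX-supplemented RPMI) were exposed to 1, 3 or 10 µM compound, after which rings were counted by Hoechst 33342 flow cytometry across three experiments.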

[3] = tested on: Toxoplasma gondii RH tachyzoites; experiment: % growth inhibition vs DMSO (48 h luciferase); higher = more inhibition; conditions: 10 µM
[4] = tested on: Plasmodium falciparum 3D7; experiment: EC50 growth inhibition (60 h, SYBR Green); conditions: stage: ring-stage start
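For % growth inhibition vs DMSO (48 h luciferase) in this document: tested in triplicate wells of 96-well plates on confluent HFF monolayers, with 1% DMSO wells as negative control in four replicates.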

Row | SMILES | EC50 growth inhibition [1] | % inhibition of schizont-to-ring transition ([2]; 1 µM) | % inhibition of schizont-to-ring transition ([2]; 3 µM) | % inhibition of schizont-to-ring transition ([2]; 10 µM) | % growth inhibition [3] | EC50 growth inhibition [4]
1 | Cc1cc(N2CCCC2)nc(Nc2ccc(NC(=O)CCc3ccccc3)cc2)n1 | 102 nM | 55.6% | 62.1% | 67.5% | 96.07 ± 0.93% | 139 nM
2 | Oc1ccc(Br)cc1CN1CCN(Cc2ccc(Cl)cc2)CC1 | 6610 nM | 16.2% | 45.5% | 68.8% | 91.5 ± 3.5% | 1090 nM
3 | Cc1ccc(Nc2nc(N)c3ccccc3n2)cc1Cl | 1980 nM | 23.3% | 60.8% | 67.5% | 98.03 ± 0.51% | 427 nM
4 | COc1ccc(/C=C2/SC(Nc3ccc(F)cc3)=NC2=O)c(OC)c1 | 7.69 nM | 23.5% | 31.5% | 54.2% | 92 ± 2.3% | 880 nM
5 | O=C(Nc1ccc(CN2CCOCC2)cc1)c1ccc(-c2cc(Cl)ccc2Cl)o1 | 5590 nM | 5.81% | 22.5% | 42.6% | 81.1 ± 4.3% | 1230 nM
6 | COc1ccc(C(O)(CCC(C)C)C(CN2CCOCC2)c2ccc(Cl)cc2)cc1 (centres undefined) | 4870 nM | 8.88% | 11.2% | 32.8% | 100.9 ± 0.49% | 2090 nM
7 | OC(CNCC1CCCO1)Cn1c2ccc(Cl)cc2c2cc(Cl)ccc21 (centres undefined) | 4460 nM | 5.57% | 44.1% | 65.7% | 99.23 ± 0.57% | 394 nM
8 | CCCCCCC(O)(c1ccc(F)cc1)C(CN1CCOCC1)c1ccccc1 (centres undefined) | 3570 nM | 37.5% | 40.1% | 40.3% | 100.1 ± 0.26% | 2160 nM
9 | COc1ccc2c(=O)cc(C(Cl)(Cl)Cl)oc2c1 | 1130 nM | 37.9% | 45% | 55.2% | 84.4 ± 9.2% | 2900 nM
10 | CCOc1ccc(Nc2c3ccccc3nc3ccccc23)cc1 | 884 nM | 45.1% | 58.5% | 68.8% | 100.1 ± 0.26% | 529 nM
11 | Oc1ccc2ccccc2c1CNc1nc2ccccc2[nH]1 | 430 nM | 41.7% | 57.8% | 70.5% | 95.1 ± 1.9% | 2930 nM
12 | Cc1cc(N(C)C)nc(Nc2ccc(NC(=O)Nc3ccccc3)cc2)n1 | 1990 nM | 41.8% | 56.5% | 71.1% | 95.4 ± 1.2% | 236 nM
13 | c1ccc2c(NCCc3c[nH]c4ccccc34)c3ccccc3nc2c1 | 170 nM | 57.4% | 60.8% | 71.5% | 100.1 ± 0.54% | 201 nM
14 | CCCCNCC(O)(c1ccc(Cl)cc1)c1ccc(Cl)cc1 | 6550 nM | 8.52% | 48.1% | 70.3% | 97.55 ± 0.55% | 527 nM
15 | Oc1ccc(Cl)cc1CNc1nc2ccccc2[nH]1 | 1310 nM | 22.5% | 38.5% | 58.6% | 96.5 ± 1.9% | 1420 nM
16 | O=C(NC(c1ccccc1)c1ccc2cccnc2c1O)c1ccccc1 (centres undefined) | 770 nM | 13.5% | 35.6% | 53.7% | 99.71 ± 0.23% | 3660 nM
17 | CCOC(=O)c1c(C)n(-c2ccccc2)c2ccc(OC(=O)c3cc(OC)c(OC)c(OC)c3)cc12 | 6360 nM | 11.1% | 16.1% | 27.7% | 96.58 ± 0.65% | 1600 nM
18 | COc1cc(CNCCc2ccc(Cl)cc2)cc(OC)c1O | 5990 nM | 3.17% | 4.67% | 38.3% | 51.4 ± 14% | 1780 nM
19 | FC(F)(F)c1ccc(Nc2nnnc3ccccc23)cc1 | 681 nM | < 0% | 4.32% | 52.7% | 83.5 ± 1.2% | 1020 nM
20 | O=c1nc(C=Cc2ccc(Cl)cc2)oc2ccccc12 | 32.4 nM | 16.8% | 24.1% | 56.2% | 94.2 ± 2.2% | 999 nM
21 | CCN(CC)c1cc(C)c2cc(NC(=O)c3cccc(OC)c3)ccc2n1 | 1810 nM | 25.4% | 31.7% | 56.8% | 98.73 ± 0.42% | 1300 nM
22 | COc1ccc(C2c3ccc4ccccc4c3Oc3ncn(CCCN(C)C)c(=N)c32)cc1 (centres undefined) | 2650 nM | 22.6% | 63.4% | 77.4% | 100.2 ± 0.12% | 319 nM
23 | COc1ccc(Nc2nc(NCc3ccccc3)c3ccccc3n2)cc1 | 763 nM | 26.4% | 34.8% | 48% | 100.5 ± 0.45% | 104 nM
24 | CCOc1ccc(/C=C/c2nc(=O)c3ccccc3o2)cc1 | 21.7 nM | 13.3% | 41.5% | 69.3% | 97.94 ± 0.17% | 657 nM
25 | Nc1nc(Nc2cccc(F)c2)nc2ccccc12 | 8210 nM | 15.3% | 31.5% | 62.7% | 100.5 ± 0.22% | 1030 nM
26 | COc1ccc(-c2nc(N3CCN(C(=O)C4CCCCC4)CC3)c3c4c(sc3n2)CCCC4)cc1 | 3080 nM | 10.6% | 17.7% | 44.9% | 86 ± 3.8% | 4080 nM
27 | O=c1nc(C=Cc2ccc(Br)cc2)oc2ccccc12 | 116 nM | 15.3% | 24.2% | 54% | 99.06 ± 0.14% | 1770 nM
28 | Cc1sc(NC(=O)c2ccco2)c(C(c2cccnc2)N2CCC(Cc3ccccc3)CC2)c1C (centres undefined) | 1120 nM | 6.59% | 41.7% | 62.4% | 99.83 ± 0.14% | 833 nM
29 | Cc1ccc(NC(=O)Nc2cccc(Cl)c2)cc1F | 1620 nM | < 0% | 2.62% | 34.3% | 98.51 ± 0.27% | 6570 nM
